Laboratory results: patent US7345030B2, “Use of n-acetyl-d-aminoglycosamine in treatment of organ lesions related to toxicosis of drugs or chemicals” (priority 2003, dated 2008)

What was measured:
Acute toxicity test = type: in vivo
From the text: (§1) The toxicological test of the compound of formula (I) includes: • 1. Acute toxicity test: including tests of oral administration, intravenous injection administration, and maximum limit amount for administration; • 2. Ames test; • 3. Micronucleus test of mouse bone marrow cell; • 4. Abnormality test of mouse sperm; • 5. Aberration test of mouse testis chromosome; • 6. Chronic lethal test; • 7. Sub-chronic toxicity (feed for 90 days) test; • 8. Traditional deformity-inducing test.

[1] = test system: Kunming mice lead poisoning models (litharge); assay: Lead poisoning test; type: in vivo
Protocol: (§2) 30 Kunming mice were randomly divided into two groups, i.e., 15 mice in test group (I) and 15 mice in test group (II), and another 15 mice were used as control. Each mouse was fed with methanol in a dose of 0.2 ml/20 g bodyweight. […] The mice of the test group (I) were intra-peritoneally injected with an aqueous solution of N-acetyl-D-glucosamine having a concentration of 0.1 g/ml in a dose of 0.1 ml/20 g bodyweight, just after they were fed with methanol. […] The mice of the test group (II) were intra-peritoneally injected with an aqueous solution of N-acetyl-D-glucosamine having a concentration of 0.1 g/ml in a dose of […], just after they were fed with methanol. […] 2. Rogor Poisoning Test 30 Kunming mice were randomly divided into three groups, i.e., 10 mice in control group, 10 mice in test group (I) and 10 mice in test group (II). The mice were orally fed with 10000 times diluted rogor stock solution (commercially obtained from Chongqing Agriculture Chemicals Group, 500 ml/bottle, standard: GB15583-1995) in a dose of 0.5 ml per mouse for consecutive 3 days. […] The mice of the test groups were treated by intra-peritoneal injection of an aqueous solution of N-acetyl-D-glucosamine having a concentration of 5 g/100 ml in a dose of 0.2 ml for the test group (I) and a dose of 2 ml for the test group (II). […] 3. Lead Poisoning Test 30 Kunming mice were made as lead poisoning models by a method of feeding litharge. […] The mice of the test group (I) were treated by intra-peritoneal injection of N-acetyl-D-glucosamine in a dose of 0.2 ml×10% (weight/volume), and the mice of the test group (II) were treated by intra-peritoneal injection with N-acetyl-D-glucosamine in a dose of 2 ml×10% (weight/volume). The death rate of mice was separately 7/10 and 2/10 within 3 days, and the death rate of mice was 1/3 and 0/8 within the following 4 days. […] According to the above examples, N-acetyl-D-glucosamine can effectively eliminate toxic effects of at least toxicants such as metal ions, organophosphorus pesticides, methanol, etc. that have different action mechanisms.

[2] = test system: Kunming mice fed with rogor; assay: Rogor poisoning test; type: in vivo; settings: 10 mice, i.p. 5 g/100 ml aqueous solution
Protocol: 30 Kunming mice were randomly divided into two groups, i.e., 15 mice in test group (I) and 15 mice in test group (II), and another 15 mice were used as control. Each mouse was fed with methanol in a dose of 0.2 ml/20 g bodyweight. […] The mice of the test group (I) were intra-peritoneally injected with an aqueous solution of N-acetyl-D-glucosamine having a concentration of 0.1 g/ml in a dose of 0.1 ml/20 g bodyweight, just after they were fed with methanol. […] The mice of the test group (II) were intra-peritoneally injected with an aqueous solution of N-acetyl-D-glucosamine having a concentration of 0.1 g/ml in a dose of […], just after they were fed with methanol. […] 2. Rogor Poisoning Test 30 Kunming mice were randomly divided into three groups, i.e., 10 mice in control group, 10 mice in test group (I) and 10 mice in test group (II). The mice were orally fed with 10000 times diluted rogor stock solution (commercially obtained from Chongqing Agriculture Chemicals Group, 500 ml/bottle, standard: GB15583-1995) in a dose of 0.5 ml per mouse for consecutive 3 days. […] The mice of the test groups were treated by intra-peritoneal injection of an aqueous solution of N-acetyl-D-glucosamine having a concentration of 5 g/100 ml in a dose of 0.2 ml for the test group (I) and a dose of 2 ml for the test group (II). […] 3. […]

[3] = Long-period toxicity test; type: in vivo; settings: maximum dosage up to 1 g/kg, treatment and observation for four weeks
From the text: as §1

mice = assay: Reproduction test; type: in vivo; settings: mice fed 7 mg/kg for 3 generations
Proteus Mirabilis = assay: Promoting wave test (bio-wave model); type: cell-based; settings: final concentration 0.5% in LB plate, 37° C., 9 hours, compared with control sample
From the text: 1. Experimental Materials and Method:
1.1 Sample: Pure Compound of Formula (I)
1.2 Experimental Materials:
• Strain: Proteus Mirabilis that meets the following biochemical reaction characteristics: dynamics (+), urease (+), lactose (−), glucose (+), H2S (−), phenylalanine deaminase (+). • Culture medium: modified LB culture medium (components: 1% tryptones, 0.5% yeast extract, 1% sodium chloride, 0.1% glucose, 0.002% TTC, and pH=7.2 to 7.4). 1.3 Experimental Method: • Control sample: the Proteus Mirabilis were inoculated at the center of LB plate, and incubated at 37° C. for 9 hours; • Test sample: the compound of formula (I) with a final concentration of 0.5% was added to the LB plate, then the Proteus Mirabilis were inoculated by the same method, and cultured at 37° C. for 9 hours. 2. […] It is anticipated that this wave-promoting function could treat organ lesions caused by toxicants and drugs.

[4] = test system: Kunming mice fed with methanol; assay: Methanol poisoning test; type: in vivo; settings: 15 mice, i.p. 0.1 g/ml aqueous solution
Protocol: 1. Methanol Poisoning Test
as §2

[5] = test group (I), i.p. 0.2 ml×10% (weight/volume)
[6] = test group (II), i.p. 2 ml×10% (weight/volume)
[7] = test group (I), 0.1 ml/20 g bodyweight
[8] = test group (II), 2 ml/20 g bodyweight

## CC(=O)N[C@@H]1[C@@H](O)[C@H](O)[C@@H](CO)O[C@H]1O [compound of formula (I), N-acetyl-D-glucosamine]
Acute toxicity test
  dosage at which the acute toxicosis reaction had not appeared: more than 2 g/kg
[1]; [5]
  death rate within 3 days: 7/10
  death rate within the following 4 days: 1/3
[1]; [6]
  death rate within 3 days: 2/10
  death rate within the following 4 days: 0/8
[2]; test group (I), 0.2 ml
  mice died: 4 mice
[2]; test group (II), 2 ml
  mice died: 1 mouse
[3]
  intoxication reaction in long-period toxicity test: no intoxication reaction
mice
  influence on pregnancy, birth, nurse and growth of baby mice: no influence
Proteus Mirabilis
  wave pattern of the colony (bio-wave promoting function): many fine waves on each ring
[4]; [7]
  mice sequentially died: 5 mice
  mice with obvious psychiatric symptoms: 2 mice
[4]; test group (I), 0.1 ml/20 g bodyweight, just after methanol 0.2 ml/20 g
  mice blind after 2 hours: 8 mice
[4]; [8]
  blind mice: no mouse was blind
  mice died within 12 hours: 2 mice
  mice with delirium and myasthenia of limbs: 4 mice
